1 compound from patent publication US20100113430A1, “THIOXANTHENE DERIVATES USEFUL TO TREAT INFECTIOUS DISEASES” (BKG PHARMA APS, priority 2007, published 2010) can be followed below.

The structures appear in SMILES notation. Values after ≈ are worked out from the molar mass of the structure shown.

Assay type in all cases: cell-based
Assay [1] deals with multiresistant clinical isolate of Staphylococcus epidermidis. Kind of assay: MIC, microdilution broth method (NCCLS), Staphylococcus epidermidis. The protocol:
(§1) Cell growth was tested using the Minimal Inhibitory Concentration (MIC) susceptibility tests by use of the microdilution broth method in accordance to the NCCLS Guidelines (NCCLS Guidelines, Methods for Dilution Antimicrobial Susceptibility Tests for Bacteria That Grow Aerobically; Approved Standard, Sixth Edition, Volume 23; Number 2). The minimum inhibitory concentration (MIC), is defined ad the lowest concentration of drug which inhibits growth of the test organism, in the sense that no visible growth is detected (total inhibition of growth). In example 2 MIC of the compounds used on fungal microorganisms was determined from the IC90 measurements according to NCCLS Guidelines.
A log phase culture of bacteria was diluted with fresh pre-warmed Mueller-Hinton medium and adjusted to a defined OD at 600 nm in order to give a final concentration of 1×10^4-5 bacteria/ml medium. The bacterial culture was transferred to microtiter-plates and culture was added to each well. […] Trays were incubated at 37° C. by shaking in a robot analyzer, PowerWavex, software KC^4′ Kebo.Lab, Copenhagen, for 16 h and optical densities were measured at 600 nm during the incubation time in order to record growth curves. Wells containing bacterial culture without drug were used as controls to ensure correct inoculum size and bacterial growth during the incubation. Cultures were tested in order to detect contaminations. Each experiment was repeated in triplicate.
A clinically relevant isolate of Staphylococcus epidermidis was cultured and assayed as described above for susceptibility towards the compounds listed in table 1.
For orientation: In broth dilution the organism is exposed to a series of concentrations in liquid medium.

In assay [2] the test system is Candida albicans clinical isolate. The assay can be described thus: MIC (90% growth inhibition), broth microdilution NCCLS M27-A, Candida albicans. The conditions noted are these: strain 1. Candida albicans FR (fluconazole resistant). The protocol:
as §1
The antibacterial effect of demethylated/dealkylated phenothiazine or thioxanthene compounds were studied by growth inhibition studies exposing cells to 0-32 μg/ml of drug. Each experiment was repeated in triplicate. MIC values represent the mean values of two separate triplicate experiments.
(§2) 4 clinical isolates of Candida sp. (including 3 fluconazole resistant isolates) were subcultured for 24 h on Sabouraud glucose agar before susceptibility testing. Broth microdilution tests were performed according to NCCLS document M27-A (Ref: National Committee for Clinical Laboratory Standards. (1997). Reference Method for Broth Dilution Antifungal Susceptibility Testing of Yeasts: Approved Standard M27-A. NCCLS, Wayne, Pa.). Microtitre plates were read spectrophotometrically at 530 nm, after mixing the wells by pipetting to resuspend yeast sediments. In this experiment, the MIC was defined as the lowest drug dilution resulting in 90% growth inhibition.

The test system of assay [3] is Candida glabrata clinical isolates. The assay can be described thus: MIC (90% growth inhibition), broth microdilution NCCLS M27-A, Candida glabrata. As to the method:
as §1, with “Guidelines. […]” for “Guidelines.”
as §2

Assay [4] deals with Staphylococci, Micrococci. Including MRSA. The assay can be described thus: MIC/IC90 broad spectrum, Staphylococci and Micrococci. The conditions noted are these: 30 strains, 20 resistant (20 MRSA). The protocol:
as §1
(§3) A log phase culture of bacteria was diluted with fresh pre-warmed Mueller-Hinton medium and adjusted to a defined OD at 600 nm in order to give a final concentration of 1×10^4-5 bacteria/ml medium. The bacterial culture was transferred to microtiter-plates and culture was added to each well. Drug was added to the bacterial culture in the wells as two-fold dilution series of drug in order to give final concentrations ranging from 0.03 to 128 μg/ml. Trays were incubated at 37° C. by shaking in a robot analyzer, PowerWavex, software KC^4′ Kebo.Lab, Copenhagen, for 16 h and optical densities were measured at 600 nm during the incubation time in order to record growth curves. Wells containing bacterial culture without drug were used as controls to ensure correct inoculum size and bacterial growth during the incubation. Cultures were tested in order to detect contaminations. Each experiment was repeated in triplicate. MIC values represent the mean values of two separate triplicate experiments. Intra- and interassay variation was <5%.
(§4) Inhibition 90 (IC90) is defined as: OD responding a 90% growth inhibition.
(§5) A broad spectrum of bacteria were cultured and assayed as described above for susceptibility towards N-dealkyl-clopenthixol.

The subject of another assay is Streptococci. Kind of assay: MIC/IC90 broad spectrum, Streptococci. The conditions noted are these: 30 strains, 20 resistant. As to the method:
as §1, §3, §4, §5

For the next assay, the system named is Gram negative sp. Kind of assay: MIC/IC90 broad spectrum, Gram negative sp. The conditions noted are these: 25 strains, 20 resistant. The protocol:
as §1, §3, §4, §5

In assay [5] the test system is clinically relevant resistant bacterial isolate S. Aureus. Kind of assay: Growth inhibition by cis/trans combinations, resistant isolate S. Aureus. The conditions noted are these: Trans-compound 0.5 μg/ml, Cis-compound 0 μg/ml. The protocol:
as §1
as §3, with “Wells containing bacterial culture without drug were used as controls to ensure correct inoculum size and bacterial growth during the incubation. Cultures were tested in order to detect contaminations. Each experiment was repeated in triplicate. MIC values represent the mean values of two separate triplicate experiments. Intra- and interassay variation was <5%.” left out

Assay [6] deals with Fluconazole Resistant Candida albicans clinical isolate. Kind of assay: MIC (80% growth inhibition), broth microdilution NCCLS M27-A, fluconazole resistant Candida albicans. The conditions noted are these: fluconazole resistant Candida albicans; MIC = 80% growth inhibition. The protocol: The antimicrobial effect of N-dealkyl-trans-clopenthixol and N-dealkyl-trans-flupenthixol was studied by exposing cells to 0-8 μg/ml of the compounds in two-fold dilutions. Each experiment was repeated in triple duplicate. MIC values represent the mean values of two separate experiments.
Clinical Isolate of A Fluconazole Resistant Candida albicans from a Patient with Candidemia.
The isolates were subcultured for 24 h on Sabouraud glucose agar before susceptibility testing. Broth microdilution tests were performed according to NCCLS document M27-A (Ref: National Commitee for Clinical Laboratory Standards. (1997). Reference Method for Broth Dilution Antifungal Susceptibility Testing of Yeasts: Approved Standard M27-A. NCCLS, Wayne, Pa.)
Microtitre plates were read spectrophotometrically at 530 nm, after mixing the wells by pipetting to resuspend yeast sediments. The MIC was defined as the lowest drug dilution resulting in 80% growth inhibition.

Assay [7] concerns resistant and susceptible clinical bacterial isolates. Kind of assay: Susceptibility of resistant versus susceptible bacterial isolates (Example 3). The conditions noted are these: isolates of Tables 3a and 3b. The protocol:
as §1
as §3, with “Wells containing bacterial culture without drug were used as controls to ensure correct inoculum size and bacterial growth during the incubation. Cultures were tested in order to detect contaminations. Each experiment was repeated in triplicate. MIC values represent the mean values of two separate triplicate experiments. Intra- and interassay variation was <5%.” left out

As for `Clc1ccc2c(c1)/C(=C/CCN1CCNCC1)c1ccccc1S2` [N-dealkyl-trans-clopenthixol, trans-1-(3-(2-chloro-thioxanthen-9-ylidene)propyl)piperazine], the minimum inhibitory concentration (MIC) was 0.5 µg/mL (≈ 1.4 µM) in [1] (Staphylococcus epidermidis multiresistant isolate, Example 6, isomers alone and 1:1 mixture); 0.5 µg/mL (≈ 1.4 µM) in [1] (multiresistant clinical isolate of Staphylococcus epidermidis, Example 1); 1 µg/mL (≈ 2.8 µM) in [2]; 1 µg/mL (≈ 2.8 µM) in assay [3] (strain 2. Candida glabrata FR (fluconazole resistant)); 0.5 µg/mL (≈ 1.4 µM) in [3] (strain 4. Candida glabrata FR (fluconazole resistant)); 0.5 µg/mL (≈ 1.4 µM) in [3] (strain 5. Candida glabrata). In addition, in assay [6], the MIC is 3 µg/mL (≈ 8.41 µM). In addition, the “IC90 (mean)” value (in assay [4]; with Streptococci) was 0.5 µg/mL (≈ 1.4 µM) throughout. The “MIC (mean)” value in assay [4] stood at 1 µg/mL (≈ 2.8 µM); in the assay on Streptococci, 1 µg/mL (≈ 2.8 µM); against Gram negative sp., 2 µg/mL (≈ 5.6 µM). Besides, the MIC range (in assay [4]; in the assay with Streptococci; against Gram negative sp.) was 0.5 to 2 µg/mL in each case. Moreover, the Growth inhibition in assay [5] is recorded as 100%. Further, the “difference in susceptibility between resistant and susceptible isolates” value in assay [7] is “No difference in susceptibility”.

What is called MIC is the lowest concentration found to suppress growth.
